# Measured values from patent US6627631B1, “Pharmaceutical composition containing desoxypeganine for the treatment of alcoholism” (priority 1999, dated 2003).
# Tests used:
# [1] = system: ethanol-preferring rats (strain going back to the Finnish AA rat line); experiment: Voluntary alcohol consumption of genetic ethanol-preferring rats (free choice of 10% ethanol or water); format: in vivo; conditions: for Alcohol consumption, absolute / Food intake / Alcohol preference (proportion of ethanol solution to total amount of drink) / Total amount of drink: n=6; for Food intake / Total amount of drink: not significant
# Description: Influence of deoxypeganine HCl on the voluntary alcohol consumption of genetic ethanol-preferring rats.
# The experimental animals were in each case 6 female rats of a strain which goes back to the Finnish AA rat line. The animals of this inbred strain prefer 10% alcohol as a drinking liquid if pure water is additionally offered to them (free choice).
# The animals were kept individually in type 3 Makrolon cages at a room temperature of 23° C. and air changes nine times per hour. Dry feed granules (Altromin 1311; meal to which vitamins, minerals, amino acids and trace elements are added; manufacturer: Altromin
# Spezialfutterwerke GmbH, Lage), drinking water and ethanol solution (10% v/v) were available to them in unrestricted amounts only during the dark phase from 20.00 hours to 08.00 hours, namely in special vessels which guarantee loss-free feeding and drinking. The amounts consumed were determined gravimetrically; the amounts of drink automatically and continuously with the aid of twelve weighing cells. The respective proportion of ethanol solution to the total amount of drink in % served as a measure of the alcohol preference: 0% means that only water, no ethanol solution, was drunk, 100% means that exclusively ethanol solution was drunk. The average alcohol preference of the untreated experimental animals was 78% or 83%.
# Table: Influence of deoxypeganine HCl on the ingestive behavior of female ethanol-prefering rats (n=6). The values determined during the three-day preliminary period in each case are in round brackets.
# cholinesterase = conditions: known pharmacological properties; cited from earlier work
# [2] = in contrast to neostigmine; cited from earlier work
# [3] = summary of the table, 15 and 30 mg/kg orally
Structure (SMILES),"Desire for alcohol [1, 3]","Food intake and total amount of drink [1, 3]","Cholinesterase inhibition, mode of action (cholinesterase)",Degradation of acetylcholine and of dopamine (cholinesterase),Blood-brain barrier passage [2],"Alcohol consumption, absolute ([1]; 15 mg/kg orally, preliminary period value 6.47 ± 0.43, p<0.01)","Food intake ([1]; 15 mg/kg orally, preliminary period value 55.2 ± 1.3)","Alcohol preference (proportion of ethanol solution to total amount of drink) ([1]; 15 mg/kg orally, preliminary period value 82.8 ± 6.4, p<0.01)","Total amount of drink ([1]; 15 mg/kg orally, preliminary period value 97.2 ± 2.3)","Alcohol consumption, absolute ([1]; 30 mg/kg orally, preliminary period value 6.30 ± 0.34, p<0.001)","Food intake ([1]; 30 mg/kg orally, preliminary period value 55.7 ± 2.1)","Alcohol preference (proportion of ethanol solution to total amount of drink) ([1]; 30 mg/kg orally, preliminary period value 77.8 ± 4.3, p<0.001)","Total amount of drink ([1]; 30 mg/kg orally, preliminary period value 100.9 ± 1.9)"
"c1ccc2c(c1)CN1CCCC1=N2 [deoxypeganine, 1,2,3,9-tetrahydropyrrolo[2,1-b]quinazoline]",considerably reduced,not significantly changed,reversibly acting cholinesterase inhibitors,"inhibits not only the degradation of acetylcholine, but also that of dopamine",crosses the blood-brain barrier,–,–,–,–,–,–,–,–
Cl.c1ccc2c(c1)CN1CCCC1=N2 [deoxypeganine HCl],–,–,–,–,–,3.17 ± 0.89 g/kg of BW,57.7 ± 2.6 ns g/kg of BW,45.0 ± 12.9 %,89.8 ± 5.6 ns g/kg of BW,3.71 ± 0.42 g/kg of BW,44.6 ± 7.6 ns g/kg of BW,51.7 ± 6.4 %,90.6 ± 6.1 ns g/kg of BW
